ChEMBL document CHEMBL2177021, “Flavaglines as potent anticancer and cytoprotective agents” (J Med Chem, 2012)
The source made the active and inactive calls. The rule behind the calls is not given here.

Tests used:
[1] = test system: KB; conditions: Homo sapiens, 72 h
[2] = test system: HCT-116; conditions: Homo sapiens, HCT-116, 72 h
[3] = Cytotoxicity against human HL60R cells overexpressing Pgp incubated for 72 hrs by MTS assay
[4] = test system: H9c2; test: Cardioprotection in rat H9c2 cells assessed as reduction in doxorubicin-induced toxicity at 100 nM pre-treated 10 hrs before doxorubicin challenge and measured 14 hrs post doxorubicin challenge by propidium iodide and annexin V staining; assay type: functional, cell-based
[5] = test system: H9c2; test: Cardioprotection in rat H9c2 cells assessed as reduction in doxorubicin-induced toxicity at 10 nM pre-treated 10 hrs before doxorubicin challenge and measured 14 hrs post doxorubicin challenge by propidium iodide and annexin V staining; assay type: functional, cell-based
[6] = test system: HL-60; test: cells; conditions: Homo sapiens, HL-60, 72 h
Description: Cytotoxicity against human HL60 cells incubated for 72 hrs by MTS assay

[7] = species on record: Rattus norvegicus; test: Neuroprotection in Wistar rat DA neurons assessed as reduction in MPP+-induced neurotoxicity at 0.1 to 1000 nM pre-treated 1 day before MPP+ by tyrosine hydroxylase detection based immunocytochemistry; assay type: functional
[8] = species on record: Rattus norvegicus; test: Neuroprotection in Wistar rat DA neurons assessed as reduction in MPP+-induced neurotoxicity at 1 to 1000 nM pre-treated 1 day before MPP+ by tyrosine hydroxylase detection based immunocytochemistry; assay type: functional
[9] = species on record: Rattus norvegicus; test: Neuroprotection in Wistar rat DA neurons assessed as reduction in MPP+-induced neurotoxicity at 1 to 100 nM pre-treated 1 day before MPP+ by tyrosine hydroxylase detection based immunocytochemistry; assay type: functional
[10] = Toxicity in mouse cerebellar granule neurons assessed as induction of apoptosis at 0.25 to 10 nM incubated for 48 hrs by MTT assay; conditions: cerebellar granule neurone, 0.01 µM
[11] = test system: Cerebellar granule neurone; test: Neuroprotection in mouse cerebellar granule neurons assessed as reduction in cisplatin-induced neurotoxicity at 1 to 5 nM incubated simultaneously with cisplatin for 48 hrs by MTT assay; assay type: functional
[12] = test system: Cerebellar granule neurone; test: Neuroprotection in mouse cerebellar granule neurons assessed as reduction in cisplatin-induced neurotoxicity at 0.25 to 10 nM incubated simultaneously with cisplatin for 48 hrs by MTT assay; assay type: functional
[13] = test system: Cerebellar granule neurone; test: Neuroprotection in mouse cerebellar granule neurons assessed as reduction in cisplatin-induced neurotoxicity at 5 nM incubated simultaneously with cisplatin for 48 hrs by MTT assay; assay type: functional
[14] = species on record: Rattus norvegicus; test: Neuroprotection in Wistar rat DA neurons assessed as reduction in MPP+-induced neurotoxicity at 10 uM pre-treated 1 day before MPP+ by tyrosine hydroxylase detection based immunocytochemistry; assay type: functional
[15] = species on record: Rattus norvegicus; test: Neuroprotection in Wistar rat DA neurons assessed as reduction in MPP+-induced neurotoxicity at 100 nM pre-treated 1 day before MPP+ by tyrosine hydroxylase detection based immunocytochemistry; assay type: functional
[16] = test system: Cerebellar granule neurone; test: Neuroprotection in mouse cerebellar granule neurons assessed as reduction in cisplatin-induced neurotoxicity at 10 nM incubated simultaneously with cisplatin for 48 hrs by MTT assay; assay type: functional
[17] = species on record: Rattus norvegicus; test: Neuroprotection in Wistar rat DA neurons assessed as reduction in MPP+-induced neurotoxicity at 10 nM pre-treated 1 day before MPP+ by tyrosine hydroxylase detection based immunocytochemistry; assay type: functional
[18] = species on record: Rattus norvegicus; test: Neuroprotection in Wistar rat DA neurons assessed as reduction in MPP+-induced neurotoxicity at 1 nM pre-treated 1 day before MPP+ by tyrosine hydroxylase detection based immunocytochemistry; assay type: functional
[19] = species on record: Mus musculus; test: Cardioprotective effect in mouse assessed as attenuation of cardiac fibrosis by measuring reduction in mouse mortality; assay type: functional, Heart; parameters: scale not given: the % may be the effect or the level left
[20] = species on record: Mus musculus; test: Cardioprotective effect in mouse assessed as attenuation of cardiomyocyte apoptosis by measuring reduction in mouse mortality; assay type: functional; parameters: scale not given: the % may be the effect or the level left

Row | SMILES | IC50 [1] [nM] | IC50 [2] [nM] | IC50 [3] [nM] | Activity [4] | Activity [5] | IC50 [6] [nM] | also measured
1 | COc1cc(OC)c2c(c1)O[C@@]1(c3ccc(Br)cc3)[C@H](c3cccc(F)c3)C[C@@H](O)[C@@]21O | 10 | 5.3 | 3.1 | Active | Active | 8.9 | 
2 | COc1cc(OC)c2c(c1)O[C@@]1(c3ccc(Cl)cc3)[C@H](c3cccc(F)c3)C[C@H](NC=O)[C@@]21O | 10 | 8.2 |  | Active | Active | 13 | 
3 | COC(=O)[C@H]1[C@@H](O)[C@@]2(O)c3c(OC)cc(OC)cc3O[C@@]2(c2ccc(Cl)cc2)[C@@H]1c1ccccc1 | 2.4 | 19 | 13 |  |  | 29 | 
4 | COC(=O)N[C@H]1C[C@@H](c2cccc(F)c2)[C@]2(c3ccc(Cl)cc3)Oc3cc(OC)cc(OC)c3[C@]12O | 50 | 38 |  | Active |  | 71 | Activity [7]: Active
5 | COc1cc(OC)c2c(c1)O[C@@]1(c3ccc(Br)cc3)[C@H](c3ccccc3)C[C@H](NC=O)[C@@]21O |  |  | 1.7 |  | Active |  | Activity [8]: Active; Activity [9]: Active; Activity [10]: Non-toxic; Activity [11]: Active; Activity [12]: Active
6 | COc1cc(OC)c2c(c1)O[C@@]1(c3ccc(Br)cc3)[C@H](c3cccc(F)c3)C[C@H](NC=O)[C@@]21O | 3.5 | 1.9 | 1.4 |  | Active | 3.4 | 
7 | COc1cc(OC)c2c(c1)O[C@@]1(c3ccc(Cl)cc3)[C@H](c3ccccc3)C[C@@H](O)[C@@]21O | 6.6 | 4.6 | 2.4 | Active | Active | 5.9 | 
8 | COc1ccc([C@@]23Oc4cc(OC)cc(OC)c4[C@]2(O)[C@H](O)C[C@H]3c2cccc(F)c2)cc1 | 41 | 23 | 60 | Active | Active | 94 | Activity [13]: Active; Activity [14]: inactive; Activity [15]: Active; Activity [10]: Non-toxic; Activity [16]: inactive
9 | COc1cc(OC)c2c(c1)O[C@@]1(c3ccc(Cl)cc3)[C@H](c3cccc(F)c3)C[C@H](NC(=O)N(C)C)[C@@]21O | 2.1 | 1.9 |  | Active | Active | 3.2 | Activity [17]: inactive
10 | CCC(=O)N[C@H]1C[C@@H](c2cccc(F)c2)[C@]2(c3ccc(Br)cc3)Oc3cc(OC)cc(OC)c3[C@]12O | 7.8 | 5.3 | 4.9 | inactive | Active | 6.2 | 
11 | COc1cc(OC)c2c(c1)O[C@@]1(c3ccc(Br)cc3)[C@H](c3cccc(F)c3)C[C@H](NC(=O)CO)[C@@]21O | 37 | 22 | 42 | Active | inactive | 31 | 
12 | COc1cc(OC)c2c(c1)O[C@@]1(c3ccc(Br)cc3)[C@H](c3cccc(F)c3)C[C@H](NC(=O)CN(C)C)[C@@]21O | 5.8 | 5 | 5.6 | Active | Active | 4.8 | 
13 | COc1cc(OC)c2c(c1)O[C@@]1(c3ccc(Br)cc3)[C@H](c3cccc(F)c3)C[C@H](NC(C)=O)[C@@]21O | 8.4 | 7.5 | 7.1 | inactive | Active | 10 | 
14 | COc1cc(OC)c2c(c1)O[C@@]1(c3ccc(Br)cc3)[C@H](c3cccc(F)c3)C[C@H](NC(N)=O)[C@@]21O | 2.9 | 2.1 |  |  |  | 3.3 | 
15 | COC(=O)[C@H]1[C@@H](O)[C@@]2(O)c3c(OC)cc(OC)cc3O[C@@]2(c2ccc(OC)cc2)[C@@H]1c1cccc(F)c1 | 9.9 | 5.2 | 28 |  |  | 20 | 
16 | COC(=O)[C@H]1[C@@H](O)[C@@]2(O)c3c(OC)cc(OC)cc3O[C@@]2(c2ccc(Br)cc2)[C@@H]1c1cccc(F)c1 | 2.8 | 2.4 | 14 |  |  | 3.2 | Activity [9]: Active
17 | COc1cc(OC)c2c(c1)O[C@@]1(c3ccc(Br)cc3)[C@H](c3cccc(F)c3)C[C@H](NC(=O)N(C)C)[C@@]21O | 3.6 | 2.4 | 2.2 | Active | Active | 4.1 | Activity [18]: Active; Activity [7]: Active; Activity [10]: Non-toxic
18 | CC[C@]1(O)C[C@@H]2CN(CCc3c([nH]c4ccccc34)[C@@](C(=O)OC)(c3cc4c(cc3OC)N(C)[C@H]3[C@@](O)(C(=O)OC)[C@H](OC(C)=O)[C@]5(CC)C=CCN6CC[C@]43[C@@H]65)C2)C1 [VINBLASTINE] |  |  | > 100 |  |  |  | 
19 | COc1cc(OC)c2c(c1)O[C@@]1(c3ccc(Br)cc3)[C@H](c3cccc(F)c3)[C@@H](C(N)=O)[C@@H](O)[C@@]21O | 1.2 | 1.2 | 3.3 | inactive | Active | 1.4 | 
20 | CC(=O)O[C@@]12CO[C@@H]1C[C@H](O)[C@@]1(C)C(=O)[C@H](O)C3=C(C)[C@@H](OC(=O)[C@H](O)[C@@H](NC(=O)OC(C)(C)C)c4ccccc4)C[C@@](O)([C@@H](OC(=O)c4ccccc4)[C@H]21)C3(C)C [DOCETAXEL] |  |  | 531 |  |  |  | 
21 | COc1cc(OC)c2c(c1)O[C@@]1(c3ccc(Br)cc3)[C@H](c3ccccc3)C[C@@H](O)[C@@]21O | 2.4 | 5.8 | 4.5 | Active | Active | 3.8 | Activity [17]: Active; Activity [19]: 50%; Activity [20]: 50%
